Assay results: US11407767B2, “Heterocyclyl substituted pyrrolopyridines that are inhibitors of the CDK12 kinase” (The University of Nottingham, priority 2017, dated 2022)

Key:
DM1 fibroblasts = assay: Nuclear foci assay; format: cell-based; conditions: Fibroblast; DM1 fibroblasts treated for 24 hours, 11 point dilution 20 μM-19 nM, in situ hybridisation with cy3 labelled CAG10 probe
Method in brief: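 DM1 fibroblasts exposed to compounds for 24 hours over an 11-point series, 20 μM-19 nM. Nuclear foci visualised by FISH with a cy3-labelled CAG10 probe and quantified by automated imaging. Concentration-dependent foci reduction judged against DMSO-treated cells.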

CDK12/CycK = CDK12/CycK (Homo sapiens, UniProt Q9NYV4); assay: Inhibition of CDK12 (ADP-Glo kinase assay); format: biochemical; conditions: 60 nM CDK12/CycK, 30 minutes pre-incubation, 1 μM ATP, 0.5 μM RBER-IRStide substrate, 1 h at 25° C., read-out: CDK12/cyclin K IC50
Sequence of CDK12/CycK (Q9NYV4 whole entry): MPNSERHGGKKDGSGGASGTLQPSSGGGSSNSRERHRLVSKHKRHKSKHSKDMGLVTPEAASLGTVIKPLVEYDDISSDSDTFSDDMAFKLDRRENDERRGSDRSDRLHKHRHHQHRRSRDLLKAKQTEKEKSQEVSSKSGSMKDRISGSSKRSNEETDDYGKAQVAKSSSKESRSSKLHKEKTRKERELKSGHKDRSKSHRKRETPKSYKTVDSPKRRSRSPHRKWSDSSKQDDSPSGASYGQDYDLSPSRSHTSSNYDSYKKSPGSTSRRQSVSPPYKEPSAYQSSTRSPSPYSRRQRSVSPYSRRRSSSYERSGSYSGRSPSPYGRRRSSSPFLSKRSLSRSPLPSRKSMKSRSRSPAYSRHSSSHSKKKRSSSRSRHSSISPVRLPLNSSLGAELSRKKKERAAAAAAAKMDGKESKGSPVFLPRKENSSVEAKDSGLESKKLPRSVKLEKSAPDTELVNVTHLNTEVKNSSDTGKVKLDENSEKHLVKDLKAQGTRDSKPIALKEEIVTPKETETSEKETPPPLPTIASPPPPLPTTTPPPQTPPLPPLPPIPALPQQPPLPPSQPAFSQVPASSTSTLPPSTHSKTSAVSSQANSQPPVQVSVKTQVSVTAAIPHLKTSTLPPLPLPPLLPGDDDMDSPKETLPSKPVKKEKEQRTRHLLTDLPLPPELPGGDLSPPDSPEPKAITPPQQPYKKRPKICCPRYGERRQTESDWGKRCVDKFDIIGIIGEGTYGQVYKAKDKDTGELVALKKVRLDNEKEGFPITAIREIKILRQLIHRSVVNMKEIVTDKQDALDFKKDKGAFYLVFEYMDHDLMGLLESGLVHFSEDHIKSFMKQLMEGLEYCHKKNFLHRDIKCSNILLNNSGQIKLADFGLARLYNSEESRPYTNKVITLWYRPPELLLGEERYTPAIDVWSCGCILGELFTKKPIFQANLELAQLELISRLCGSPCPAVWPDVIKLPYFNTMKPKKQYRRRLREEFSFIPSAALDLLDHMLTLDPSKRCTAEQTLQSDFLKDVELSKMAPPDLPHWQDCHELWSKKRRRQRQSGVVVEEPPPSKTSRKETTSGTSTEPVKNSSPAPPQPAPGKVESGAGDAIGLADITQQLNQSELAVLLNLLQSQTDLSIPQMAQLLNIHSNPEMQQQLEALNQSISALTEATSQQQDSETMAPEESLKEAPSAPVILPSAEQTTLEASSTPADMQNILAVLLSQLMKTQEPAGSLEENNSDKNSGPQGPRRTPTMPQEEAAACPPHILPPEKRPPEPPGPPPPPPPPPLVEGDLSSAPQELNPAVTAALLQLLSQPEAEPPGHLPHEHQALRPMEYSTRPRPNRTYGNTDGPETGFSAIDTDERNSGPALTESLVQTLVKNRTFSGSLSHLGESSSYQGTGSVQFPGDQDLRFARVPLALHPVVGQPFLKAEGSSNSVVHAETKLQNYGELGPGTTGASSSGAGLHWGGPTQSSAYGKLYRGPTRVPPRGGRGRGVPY
Sequence of CDK12/CycK (O75909 whole entry partner): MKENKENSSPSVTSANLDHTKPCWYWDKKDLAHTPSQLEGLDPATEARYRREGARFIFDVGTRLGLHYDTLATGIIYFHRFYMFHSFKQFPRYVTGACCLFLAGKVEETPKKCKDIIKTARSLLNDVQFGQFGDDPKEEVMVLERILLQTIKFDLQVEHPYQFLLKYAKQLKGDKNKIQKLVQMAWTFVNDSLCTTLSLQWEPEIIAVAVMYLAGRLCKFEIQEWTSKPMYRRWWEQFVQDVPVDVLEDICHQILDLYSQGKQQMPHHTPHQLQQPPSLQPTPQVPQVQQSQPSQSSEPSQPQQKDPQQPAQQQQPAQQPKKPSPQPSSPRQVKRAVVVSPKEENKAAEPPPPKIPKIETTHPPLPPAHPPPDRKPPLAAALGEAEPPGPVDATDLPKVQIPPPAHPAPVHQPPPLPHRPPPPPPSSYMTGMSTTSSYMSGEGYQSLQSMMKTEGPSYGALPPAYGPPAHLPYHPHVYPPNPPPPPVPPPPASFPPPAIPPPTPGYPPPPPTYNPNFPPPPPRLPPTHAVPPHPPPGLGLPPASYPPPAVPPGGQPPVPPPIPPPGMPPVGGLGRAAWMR
Method in brief: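 ADP-Glo luminescence read after a 1 h, 25 °C reaction with 1 μM ATP and 0.5 μM RBER-IRStide peptide. Enzyme (60 nM) and compound were first pre-incubated 30 min; buffer 50 mM HEPES pH 7.5, 20 mM MgCl2, 3 mM MnCl2, 1% DMSO. IC50 fitted after blank subtraction.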

IC50 (CDK12/CycK): 0.1 to 1 µM
Structure (SMILES): C=CC(=O)N1CCC[C@H]1C(=O)OCCc1cc2c(-c3cnn4ncccc34)ccnc2[nH]1 [Example 213, 2-(4-(Pyrazolo[1,5-b]pyridazin-3-yl)-1H-pyrrolo[2,3-b]pyridin-2-yl)ethyl acryloyl-L-prolinate]
IC50 (DM1 fibroblasts): < 1 µM
